Measured values as given in US20240027453A1, “METHOD FOR DETECTION AND QUANTITATIVE MONITORING OF INFECTIONS WITH HERPESVIRUSES” (The Trustees of Princeton University, priority 2020, published 2024).
Read-outs that look alike come from different tables or passages of the source.

System: HCMV
Type: cell-based
Conditions: for UL36 (P16767) protein, numerical value of heatmap FIG. 6C / UL37 (P16778) protein, numerical value of heatmap FIG. 6C / UL122 (P19893) protein, numerical value of heatmap FIG. 6C / UL123 (P13202) protein, numerical value of heatmap FIG. 6C / IRS1 (P09715) protein, numerical value of heatmap FIG. 6C / TRS1 (P09695) protein, numerical value of heatmap FIG. 6C / UL13 (P16755) protein, numerical value of heatmap FIG. 6C: IE
Method: In example herpesvirus PRM assay methods shown herein, cell pellets were lysed in 2% SDS, 100 mM NaCl, 0.5 mM EDTA, 50 mM Tris, pH 8.2, and 50 μg of protein was reduced and alkylated with 25 mM TCEP and 50 mM CAM respectively for 20 min at 70° C. Proteins were then precipitated via methanol chloroform precipitation (Wessel & Flugg, Anal Biochem. 138(1):141-143, 1984), resuspended in 50 mM HEPES, pH 8.2 and digested overnight with trypsin (50:1 protein:enzyme w/w ratio). Digested peptides were desalted by SDB-RPS StageTip as previously described (Lum et al., Cell Syst., 7(6):[…], 2018; Greco et al., Methods Mol Biol 1410:39-63, 2016; Federspiel & Cristea, Methods Mol Biol., 1977:115-143, 2019).
Peptides (1.0 μg on column) were analyzed by LC-MS/MS using a Dionex Ultimate 3000 UHPLC coupled online to an EASYSpray ion source and a Q Exactive HF. Peptides were separated on an EASYSpray C18 column (75 μm×25 cm) heated to 50° C. using a linear gradient of 5% B to 32% B over 60 min at a flow rate of 250 nL/min and were ionized at 1.7 kv. Mobile phase A consisted of 0.1% FA in H2O and mobile phase B consisted of 0.1% FA, 2.9% H2O in ACN.
The PRM method was controlled by a peptide inclusion list with retention time windows of 6 min for selected precursor ions.
The PRM assay was developed and analyzed using the open-source software Skyline (Maclean et al., Bioinformatics 26(7):966-968, 2010). Summed area under the curve of 3-4 transitions per peptide was used for quantitation. Targeted peptides were normalized to host protein loading control peptides. Peptide values for each sample were scaled to the average of each peptide across all runs. The average of multiple peptides was used as the inferred value for the protein measurement when more than one peptide was quantified (Federspiel et al., PLoS Biol. 17(9):e3000437. Doi: 10.1371/journal.pbio.3000437). PRM quantitation data were graphed using the Python Seaborn and Matplotlib libraries.
MRC5 primary human fibroblasts (HFs) (ATCC CCL-171) were used as the model system for HSV-1 and HCMV infections and were cultured in complete growth medium (DMEM supplemented with 10% fetal bovine serum and 1% penicillin-streptomycin antibiotics) at 37° C. and 5% CO2. iSLK.219 cells harboring latent KSHV (a gift from Dr. Britt Glaunsinger, University of California, Berkeley) were grown in complete growth medium supplemented with 500 μg/ml hygromycin (ThermoFisher Scientific, 10687010) at 37° C. and 5% CO2. All cells were used for experiments within a maximum of 10 passages.
Wild type HSV-1 strain 17+ (a gift from Beate Sodeik, Hannover Medical School, Hannover, Germany) was propagated as previously described (Diner et al., 2015). Briefly, PO stocks were generated by electroporating pBAC-HSV-1 into U-2 OS cells. […] In a similar manner, wild type HCMV strain AD169 was produced from BAC electroporation into HFs and working stocks were propagated by infecting HFs at a low level. In both cases, cell-associated virus was released by sonication, combined with supernatant virus, then concentrated by ultracentrifugation (20,000 rpm, 2 hours, 4° C. with SW28 swinging bucket rotor [Beckman Coulter]) over a 10% ficoll (HSV-1) or 20% sorbitol (HCMV) cushion. Virus stock titers were determined by plaque assay for HSV-1 or tissue culture infectious dose (TCID50) for HCMV and infections were performed at a multiplicity of infection (MOI) of 3.
12 hours prior to virus infection or reactivation, cells were treated with either the small molecule drug or DMSO/PBS control at an equivalent volume. […] For infection cycles lasting longer than 24 hours, small molecule drugs were re-added to the cell culture medium every 24 hours. Upon collection, cells were rinsed with PBS, scraped into a microcentrifuge tube, pelleted by centrifugation, and rinsed again with PBS.

Nc1ccn(C[C@@H](CO)OCP(=O)(O)O)c(=O)n1 [CDV, cidofovir]
UL36 (P16767) protein, numerical value of heatmap FIG. 6C (timepoint 48): 0.9304
UL37 (P16778) protein, numerical value of heatmap FIG. 6C (timepoint 48): 0.8657
UL122 (P19893) protein, numerical value of heatmap FIG. 6C (timepoint 48): 0.07563
UL123 (P13202) protein, numerical value of heatmap FIG. 6C (timepoint 48): 0.8515
IRS1 (P09715) protein, numerical value of heatmap FIG. 6C (timepoint 72): 1.017
TRS1 (P09695) protein, numerical value of heatmap FIG. 6C (timepoint 72): 0.9014
UL13 (P16755) protein, numerical value of heatmap FIG. 6C (timepoint 72): 0.8575
UL36 (P16767) protein, numerical value of heatmap FIG. 6C (timepoint 72): 0.8818
UL37 (P16778) protein, numerical value of heatmap FIG. 6C (timepoint 72): 1.038
UL122 (P19893) protein, numerical value of heatmap FIG. 6C (timepoint 72): 0.3738
UL123 (P13202) protein, numerical value of heatmap FIG. 6C (timepoint 72): 0.7924
IRS1 (P09715) protein, numerical value of heatmap FIG. 6C (timepoint 96): 0.9536
TRS1 (P09695) protein, numerical value of heatmap FIG. 6C (timepoint 96): 0.7893
UL13 (P16755) protein, numerical value of heatmap FIG. 6C (timepoint 96): 0.7965
UL36 (P16767) protein, numerical value of heatmap FIG. 6C (timepoint 96): 0.834
UL37 (P16778) protein, numerical value of heatmap FIG. 6C (timepoint 96): 0.936
UL122 (P19893) protein, numerical value of heatmap FIG. 6C (timepoint 96): 0.8676
UL123 (P13202) protein, numerical value of heatmap FIG. 6C (timepoint 96): 0.7732
IRS1 (P09715) protein, numerical value of heatmap FIG. 6C (timepoint 120): 1.003
TRS1 (P09695) protein, numerical value of heatmap FIG. 6C (timepoint 120): 1.103
UL13 (P16755) protein, numerical value of heatmap FIG. 6C (timepoint 120): 1.075
UL36 (P16767) protein, numerical value of heatmap FIG. 6C (timepoint 120): 1.234
UL37 (P16778) protein, numerical value of heatmap FIG. 6C (timepoint 120): 1.212
UL122 (P19893) protein, numerical value of heatmap FIG. 6C (timepoint 120): 1.141
UL123 (P13202) protein, numerical value of heatmap FIG. 6C (timepoint 120): 1.074
MCP (P16729) protein, numerical value of heatmap FIG. 6C (L, timepoint 24): 0.009303
UL25 (P16761) protein, numerical value of heatmap FIG. 6C (L, timepoint 24): 0.02316
UL29 (P16764) protein, numerical value of heatmap FIG. 6C (L, timepoint 24): 0.4352
UL31 (P16848) protein, numerical value of heatmap FIG. 6C (L, timepoint 24): 0.2632
UL43 (P16781) protein, numerical value of heatmap FIG. 6C (L, timepoint 24): 0.06898
UL52 (P16793) protein, numerical value of heatmap FIG. 6C (L, timepoint 24): 0.01391
UL80 (P16753) protein, numerical value of heatmap FIG. 6C (L, timepoint 24): 0.007269
UL82 (P06726) protein, numerical value of heatmap FIG. 6C (L, timepoint 24): 0.2135
UL94 (P16800) protein, numerical value of heatmap FIG. 6C (L, timepoint 24): 0.03193
UL99 (P13200) protein, numerical value of heatmap FIG. 6C (L, timepoint 24): 0.01797
UL103 (P16734) protein, numerical value of heatmap FIG. 6C (L, timepoint 24): 0.236
UL117 (P16770) protein, numerical value of heatmap FIG. 6C (L, timepoint 24): 0.1983
gH (P12824) protein, numerical value of heatmap FIG. 6C (L, timepoint 24): 0.03303
gL (P16832) protein, numerical value of heatmap FIG. 6C (L, timepoint 24): 0.03204
gM (P16733) protein, numerical value of heatmap FIG. 6C (L, timepoint 24): 0.0224
sp|P16809|IR11_HCMVA (P16809) protein, numerical value of heatmap FIG. 6C (L, timepoint 24): 0.04109
CVC1 (P16799) protein, numerical value of heatmap FIG. 6C (L, timepoint 48): 0.1142
MCP (P16729) protein, numerical value of heatmap FIG. 6C (L, timepoint 48): 0.01444
TRM2 (P16792) protein, numerical value of heatmap FIG. 6C (L, timepoint 48): 0.0613
UL22A (P16845) protein, numerical value of heatmap FIG. 6C (L, timepoint 48): 0.07025
UL25 (P16761) protein, numerical value of heatmap FIG. 6C (L, timepoint 48): 0.06426
UL29 (P16764) protein, numerical value of heatmap FIG. 6C (L, timepoint 48): 0.6305
UL31 (P16848) protein, numerical value of heatmap FIG. 6C (L, timepoint 48): 0.2379
UL43 (P16781) protein, numerical value of heatmap FIG. 6C (L, timepoint 48): 0.09529
UL52 (P16793) protein, numerical value of heatmap FIG. 6C (L, timepoint 48): 0.08671
UL80 (P16753) protein, numerical value of heatmap FIG. 6C (L, timepoint 48): 0.04081
